Reference: patent publication US20240270698A2, “NOVEL PYRIMIDINE DERIVATIVE AND USE THEREOF” (KOREA RESEARCH INSTITUTE OF CHEMICAL TECHNOLOGY, priority 2019, published 2024)

Tests used:
[1] = target: T1, human recombinant MLK3 protein (Homo sapiens, UniProt Q16584); assay: MLK3 kinase activity assay (Eurofins, gamma-33P-ATP, filtermat scintillation counting); format: biochemical; conditions: human recombinant MLK3, 120 minutes at room temperature
T1 construct: purchased Eurofins
Description: (§1) Compounds 1 to 119 synthesized in Example 1 according to the present disclosure were assayed for inhibitory activity against MLK3/LRRK2 enzymes and anticancer activity against HepG2/HS746T cancer cells, and the results are summarized in Table 1, below.
(§2) Inhibitory activity against MLK3 and LRRK2 enzymes was evaluated in Eurofins. In brief, human recombinant MLK3 protein was mixed with the compounds in a reaction buffer (8 mM MOPS (pH 7.0), 0.2 mM EDTA, 0.33 mg/mL myelin basic protein, 5 mM DTT) to which a mixture of 10 mM magnesium acetate and gamma-33P-ATP was then added before incubation at room temperature for 120 minutes. Afterward, the reaction was terminated with 0.5% phosphoric acid. Ten μL of the total mixture was spotted onto a P30 filtermat which was then washed four times for 4 minutes with 0.425% phosphoric acid and once in methanol prior to scintillation counting. Values for the activity of MLK3 were expressed as % of the control. For the activity of LRRK2, human recombinant LRRK2 protein was mixed with the compounds in a reaction buffer (50 mM HEPES (pH 8.0), 0.2 mM EDTA, 0.01% Brij-35, 1% (w/v) BSA, 5 mM DTT, 250 uM substrate peptide RLGRDKYKTLRQIRQ) and then reacted with a mixture of 10 mM magnesium acetate and gamma-33P-ATP at room temperature for 40 minutes. Afterward, the reaction was terminated with 0.5% phosphoric acid. Ten μL of the total mixture was spotted onto a P30 filtermat which was then washed four times for 4 minutes with 0.425% phosphoric acid and once in methanol prior to scintillation counting. Values for the activity of LRRK2 were expressed as % of the control.

[2] = target: T2, human recombinant LRRK2 protein (Homo sapiens, UniProt Q5S007); assay: LRRK2 kinase activity assay (Eurofins, gamma-33P-ATP, filtermat scintillation counting); format: biochemical; conditions: human recombinant LRRK2, 40 minutes at room temperature
T2 construct: purchased Eurofins
Description: as §1, §2

HepG2 cancer cells = assay: Anticancer activity, cell viability by CCK-8, HepG2; format: cell-based; conditions: HepG2, 10 μM, 72 hours
Description: (§3) Compounds 1 to 119 synthesized in Example 1 according to the present disclosure were assayed for inhibitory activity against MLK3/LRRK2 enzymes and anticancer activity against HepG2/H[…] cancer cells, and the results are summarized in Table 1, below. Assay for anticancer activity was conducted as follows. HepG2 and H[…] cancer cells were purchased from the Korean Cell Line Bank and cultured according to the instruction provided thereby. One hundred μL of a culture of the cells were seeded at a density of 4,000 cells/well into 96-well plates. After 24 hours, the cells were treated with the compounds for 72 hours. Then, cell viability was assayed using CCK-8 and expressed as % of the control.

HS746T cancer cells = assay: Anticancer activity, cell viability by CCK-8, HS746T; format: cell-based; conditions: 72 hours
Description: as §3

T2 sequence (Q5S007 whole entry): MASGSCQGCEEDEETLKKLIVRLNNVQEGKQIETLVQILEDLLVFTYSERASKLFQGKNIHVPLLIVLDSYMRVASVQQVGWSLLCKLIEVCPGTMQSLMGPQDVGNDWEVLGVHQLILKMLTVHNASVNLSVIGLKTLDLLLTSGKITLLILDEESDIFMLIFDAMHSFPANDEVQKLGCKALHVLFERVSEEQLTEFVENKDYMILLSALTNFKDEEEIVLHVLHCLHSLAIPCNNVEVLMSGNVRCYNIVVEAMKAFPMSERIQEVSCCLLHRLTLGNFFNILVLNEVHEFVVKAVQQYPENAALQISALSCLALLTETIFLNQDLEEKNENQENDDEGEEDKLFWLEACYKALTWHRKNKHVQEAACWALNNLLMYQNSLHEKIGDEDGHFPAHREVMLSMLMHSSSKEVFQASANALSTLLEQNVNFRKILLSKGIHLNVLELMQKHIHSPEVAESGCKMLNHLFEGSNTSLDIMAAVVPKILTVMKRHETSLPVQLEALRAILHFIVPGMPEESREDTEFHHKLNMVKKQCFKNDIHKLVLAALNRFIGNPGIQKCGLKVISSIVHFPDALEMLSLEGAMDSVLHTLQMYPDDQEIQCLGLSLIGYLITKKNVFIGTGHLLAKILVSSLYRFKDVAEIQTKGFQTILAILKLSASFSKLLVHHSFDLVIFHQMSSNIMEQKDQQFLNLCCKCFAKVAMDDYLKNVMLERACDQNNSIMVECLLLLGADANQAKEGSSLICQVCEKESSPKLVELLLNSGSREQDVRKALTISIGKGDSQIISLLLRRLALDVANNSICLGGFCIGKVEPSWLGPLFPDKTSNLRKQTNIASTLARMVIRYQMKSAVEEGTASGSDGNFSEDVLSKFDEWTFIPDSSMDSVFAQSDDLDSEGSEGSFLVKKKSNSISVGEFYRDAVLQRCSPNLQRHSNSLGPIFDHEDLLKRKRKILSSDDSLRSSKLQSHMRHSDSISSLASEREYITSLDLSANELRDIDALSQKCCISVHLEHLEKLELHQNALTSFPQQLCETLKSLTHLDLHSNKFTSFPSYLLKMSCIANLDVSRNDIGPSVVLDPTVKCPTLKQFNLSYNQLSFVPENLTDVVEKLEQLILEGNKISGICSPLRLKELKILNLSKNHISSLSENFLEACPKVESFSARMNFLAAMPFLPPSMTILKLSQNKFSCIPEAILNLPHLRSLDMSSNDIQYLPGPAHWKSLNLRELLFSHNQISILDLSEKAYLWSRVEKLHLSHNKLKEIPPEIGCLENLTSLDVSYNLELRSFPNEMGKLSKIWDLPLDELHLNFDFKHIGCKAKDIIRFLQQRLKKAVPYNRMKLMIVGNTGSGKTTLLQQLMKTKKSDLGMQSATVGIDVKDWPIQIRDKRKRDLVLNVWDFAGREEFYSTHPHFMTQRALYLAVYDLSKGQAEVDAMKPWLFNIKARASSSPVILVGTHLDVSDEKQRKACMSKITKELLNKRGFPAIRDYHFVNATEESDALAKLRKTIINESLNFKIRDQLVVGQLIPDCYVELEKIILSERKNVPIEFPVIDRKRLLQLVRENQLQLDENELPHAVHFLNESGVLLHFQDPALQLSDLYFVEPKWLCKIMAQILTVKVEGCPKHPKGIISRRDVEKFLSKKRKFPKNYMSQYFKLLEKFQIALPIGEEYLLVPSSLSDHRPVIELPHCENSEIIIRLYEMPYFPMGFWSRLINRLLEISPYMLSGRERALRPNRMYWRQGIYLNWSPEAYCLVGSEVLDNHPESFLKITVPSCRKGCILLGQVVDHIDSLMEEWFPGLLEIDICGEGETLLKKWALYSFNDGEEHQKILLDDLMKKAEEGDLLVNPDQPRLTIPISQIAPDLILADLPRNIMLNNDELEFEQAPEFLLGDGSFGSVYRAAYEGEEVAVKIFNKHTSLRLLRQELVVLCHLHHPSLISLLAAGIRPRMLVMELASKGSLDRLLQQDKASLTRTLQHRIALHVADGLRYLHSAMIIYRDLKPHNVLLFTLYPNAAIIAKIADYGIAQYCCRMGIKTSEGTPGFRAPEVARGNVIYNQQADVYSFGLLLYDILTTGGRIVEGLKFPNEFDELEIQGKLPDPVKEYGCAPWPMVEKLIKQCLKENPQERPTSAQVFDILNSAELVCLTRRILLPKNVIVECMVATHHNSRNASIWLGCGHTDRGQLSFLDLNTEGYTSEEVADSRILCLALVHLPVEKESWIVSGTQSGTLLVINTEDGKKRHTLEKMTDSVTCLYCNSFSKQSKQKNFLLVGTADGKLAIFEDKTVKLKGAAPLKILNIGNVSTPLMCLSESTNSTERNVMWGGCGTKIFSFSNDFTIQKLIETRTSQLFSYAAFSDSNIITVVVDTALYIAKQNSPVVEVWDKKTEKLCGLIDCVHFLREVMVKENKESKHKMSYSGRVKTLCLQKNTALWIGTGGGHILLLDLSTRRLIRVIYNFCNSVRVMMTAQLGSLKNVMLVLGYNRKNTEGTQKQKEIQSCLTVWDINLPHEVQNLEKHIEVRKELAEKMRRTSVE
T1 sequence (Q16584 whole entry): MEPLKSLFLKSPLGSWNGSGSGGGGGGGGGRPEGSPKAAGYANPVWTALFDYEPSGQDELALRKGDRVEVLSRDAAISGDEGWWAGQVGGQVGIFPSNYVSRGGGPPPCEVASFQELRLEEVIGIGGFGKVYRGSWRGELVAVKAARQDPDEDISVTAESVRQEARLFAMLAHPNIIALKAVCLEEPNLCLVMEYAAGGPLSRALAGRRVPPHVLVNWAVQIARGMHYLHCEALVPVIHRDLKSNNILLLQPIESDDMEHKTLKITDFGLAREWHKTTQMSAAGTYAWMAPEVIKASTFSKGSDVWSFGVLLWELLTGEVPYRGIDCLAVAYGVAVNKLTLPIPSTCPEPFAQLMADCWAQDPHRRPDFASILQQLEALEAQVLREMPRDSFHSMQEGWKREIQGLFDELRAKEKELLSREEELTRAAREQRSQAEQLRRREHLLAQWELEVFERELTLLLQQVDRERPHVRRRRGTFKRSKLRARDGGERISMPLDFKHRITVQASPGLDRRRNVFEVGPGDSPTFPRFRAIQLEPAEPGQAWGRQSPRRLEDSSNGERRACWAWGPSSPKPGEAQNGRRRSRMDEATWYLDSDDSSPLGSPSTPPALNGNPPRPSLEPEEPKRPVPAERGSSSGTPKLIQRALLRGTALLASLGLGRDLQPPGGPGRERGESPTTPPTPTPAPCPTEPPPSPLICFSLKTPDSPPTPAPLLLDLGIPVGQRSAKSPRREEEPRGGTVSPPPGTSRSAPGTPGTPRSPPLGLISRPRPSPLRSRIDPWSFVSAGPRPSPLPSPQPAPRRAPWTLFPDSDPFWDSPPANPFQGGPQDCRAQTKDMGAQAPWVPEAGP

| IC50 [1] [nM] | IC50 [2] [nM] | SMILES | Cell viability (% of Con. 10 μM) HepG2 (HepG2 cancer cells) | Cell viability (% of Con. 10 μM) HS746T (HS746T cancer cells) |
| --- | --- | --- | --- | --- |
| 100 to 1000 | 100 to 1000 | CC(C)S(=O)(=O)c1ccccc1Nc1nc(Nc2cc(Cl)cc(Cl)c2)ncc1Cl [compound 2, 5-Chloro-N^2-(3,5-dichlorophenyl)-N^4-(2-(isopropylsulfonyl)phenyl) pyrimidine-2,4-diamine] |  |  |
| 100 to 1000 | 100 to 1000 | Cc1cc(C)cc(Nc2ncc(Cl)c(Nc3ccccc3S(=O)(=O)C(C)C)n2)c1 [compound 3, 5-Chloro-N^2-(3,5-dimethylphenyl)-N^4-(2-(isopropylsulfonyl)phenyl) pyrimidine-2,4-diamine] |  |  |
| 100 to 1000 | 10 to 100 | CC(C)S(=O)(=O)c1ccccc1Nc1nc(Nc2cc(F)c(Br)c(F)c2)ncc1Cl [compound 4, N^2-(4-Bromo-3,5-difluorophenyl)-5-chloro-N^4-(2-(isopropylsulfonyl)phenyl)pyrimidine-2,4-diamine] |  |  |
| 10 to 100 | 100 to 1000 | CC(C)S(=O)(=O)c1ccccc1Nc1nc(Nc2cc(C(F)(F)F)cc(C(F)(F)F)c2)ncc1Cl [compound 5, N^2-(3,5-bis(trifluoromethyl)phenyl)-5-chloro-N^4-(2-(isopropylsulfonyl)phenyl)pyrimidine-2,4-diamine] |  |  |
| 100 to 1000 | 100 to 1000 | CC(C)S(=O)(=O)c1ccccc1Nc1nc(Nc2cc(F)cc(F)c2)ncc1Cl [compound 6, 5-Chloro-N^2-(3,5-difluorophenyl)-N^4-(2-(isopropylsulfonyl)phenyl) pyrimidine-2,4-diamine] |  |  |
| 100 to 1000 | 100 to 1000 | CC1(C)CCC(C)(C)c2cc(Nc3ncc(Cl)c(Nc4ccccc4P(C)(C)=O)n3)ccc21 [compound 7, (2-((5-Chloro-2-((5,5,8,8-tetramethyl-5,6,7,8-tetrahydronaphthalen-2-yl)amino)pyrimidin-4-yl)amino)phenyl)dimethylphosphine oxide] | 75 % of Con. | 103 % of Con. |
| > 1000 | > 1000 | CP(C)(=O)c1ccccc1Nc1nc(N2CCc3c(N)cccc3C2)ncc1Cl [compound 9, (2-((2-(5-Amino-3,4-dihydroisoquinolin-2(1H)-yl)-5-chloropyrimidin-4-yl)amino)phenyl)dimethylphosphine oxide] | 110 % of Con. | 104 % of Con. |
| > 1000 | > 1000 | Cc1cc(Nc2ncc(Cl)c(Nc3ccccc3P(C)(C)=O)n2)ccn1 [compound 10, (2-((5-Chloro-2-((2-methylpyridin-4-yl)amino)pyrimidin-4-yl)amino)phenyl)dimethylphosphine oxide] | 91 % of Con. | 120 % of Con. |
| 1 to 10 | 1 to 10 | CP(C)(=O)c1ccccc1Nc1nc(Nc2ccc3ncsc3c2)ncc1Cl [compound 11, (2-((2-(Benzo[d]thiazol-6-ylamino)-5-chloropyrimidin-4-yl)amino)phenyl)dimethylphosphine oxide] | 28 % of Con. | 27 % of Con. |
| > 1000 | > 1000 | CP(C)(=O)c1ccccc1Nc1nc(NCc2ccc(F)cc2)ncc1Cl [compound 12, (2-((5-Chloro-2-((4-fluorobenzyl)amino)pyrimidin-4-yl)amino)phenyl)dimethylphosphine oxide] | 85 % of Con. | 97 % of Con. |
| > 1000 | > 1000 | CP(C)(=O)c1ccccc1Nc1nc(NCc2ccccc2)ncc1Cl [compound 14, (2-((2-(Benzylamino)-5-chloropyrimidin-4-yl)amino)phenyl) dimethylphosphine oxide] | 108 % of Con. | 110 % of Con. |
| > 1000 | > 1000 | CP(C)(=O)c1ccccc1Nc1nc(Nc2ccncc2)ncc1Cl [compound 15, (2-((5-Chloro-2-(pyridin-4-ylamino)pyrimidin-4-yl)amino)phenyl) dimethylphosphine oxide] | 116 % of Con. | 110 % of Con. |
| > 1000 | > 1000 | CP(C)(=O)c1ccccc1Nc1nc(NC2CCCCC2)ncc1Cl [compound 16, (2-((5-Chloro-2-(cyclohexylamino)pyrimidin-4-yl)amino)phenyl) dimethylphosphine oxide] | 82 % of Con. | 64 % of Con. |
| 1 to 10 | 1 to 10 | Cc1nc2ccc(Nc3ncc(Cl)c(Nc4ccccc4P(C)(C)=O)n3)cc2s1 [compound 17, (2-((5-Chloro-2-((2-methylbenzo[d]thiazol-6-yl)amino)pyrimidin-4-yl)amino)phenyl)dimethylphosphine oxide] | 35 % of Con. | 17 % of Con. |
| 10 to 100 | 1 to 10 | CP(C)(=O)c1ccccc1Nc1nc(Nc2ccc3ncccc3c2)ncc1Cl [compound 18, (2-((5-Chloro-2-(quinolin-6-ylamino)pyrimidin-4-yl)amino)phenyl) dimethylphosphine oxide] | 32 % of Con. | 16 % of Con. |
| 10 to 100 | 10 to 100 | CP(C)(=O)c1ccccc1Nc1nc(Nc2cnc3ccccc3c2)ncc1Cl [compound 19, (2-((5-Chloro-2-(quinolin-3-ylamino)pyrimidin-4-yl)amino)phenyl) dimethylphosphine oxide] | 34 % of Con. | 25 % of Con. |
| 10 to 100 | 1 to 10 | Cn1ncc2cc(Nc3ncc(Cl)c(Nc4ccccc4P(C)(C)=O)n3)cnc21 [compound 78] |  | 17 % of Con. |
| 10 to 100 | 1 to 10 | CP(C)(=O)c1ccccc1Nc1nc(Nc2cnc3[nH]ccc3c2)ncc1Cl [compound 79, (2-((2-((1H-Pyrrolo[2,3-b]pyridin-5-yl)amino)-5-chloropyrimidin-4-yl)amino)phenyl)dimethylphosphine oxide] |  | 19 % of Con. |
| 10 to 100 | 10 to 100 | CP(C)(=O)c1ccccc1Nc1nc(Nc2cnc3[nH]ncc3c2)ncc1Cl [compound 82, (2-((2-((1H-Pyrazolo[3,4-b]pyridin-5-yl)amino)-5-chloropyrimidin-4-yl)amino)phenyl)dimethylphosphine oxide] |  | 18 % of Con. |
| 1 to 10 | 1 to 10 | CP(C)(=O)c1ccccc1Nc1nc(Nc2ccc3[nH]nc(-c4cccnc4F)c3c2)ncc1Cl [compound 83, (2-((5-Chloro-2-((3-(2-fluoropyridin-3-yl)-1H-indazol-5-yl)amino)pyrimidin-4-yl)amino)phenyl)dimethylphosphine oxide] |  | 11 % of Con. |
| 1 to 10 | 1 to 10 | CP(C)(=O)c1ccccc1Nc1nc(Nc2ccc3[nH]nc(-c4cn[nH]c4)c3c2)ncc1Cl [compound 84, (2-((2-((3-(1H-Pyrazol-4-yl)-1H-indazol-5-yl)amino)-5-chloropyrimidin-4-yl)amino)phenyl)dimethylphosphine oxide] |  | 11 % of Con. |
| 1 to 10 | 1 to 10 | CC(C)(C)OC(=O)N1CC=C(c2n[nH]c3ccc(Nc4ncc(Cl)c(Nc5ccccc5P(C)(C)=O)n4)cc23)CC1 [compound 85, Tert-butyl 4-(5-((5-chloro-4-((2-(dimethylphosphoryl)phenyl)amino)pyrimidin-2-yl)amino)-1H-indazol-3-yl)-3,6-dihydropyridine-1(2H)-carboxylate] |  | 6 % of Con. |
| 1 to 10 | 1 to 10 | CP(C)(=O)c1ccccc1Nc1nc(Nc2ccc3[nH]nc(-c4ccc(C=O)o4)c3c2)ncc1Cl [compound 92, 5-(5-((5-Chloro-4-((2-(dimethylphosphoryl)phenyl)amino)pyrimidin-2-yl)amino)-1H-indazol-3-yl)furan-2-carbaldehyde] |  | 14.1 % of Con. |

| SMILES | IC50 [1] [nM] | IC50 [2] [nM] | Cell viability (% of Con. 10 μM) HepG2 (HepG2 cancer cells) | Cell viability (% of Con. 10 μM) HS746T (HS746T cancer cells) |
| --- | --- | --- | --- | --- |
| CP(C)(=O)c1ccccc1Nc1nc(Nc2ccc3[nH]nc(C4=CCNCC4)c3c2)ncc1Cl [compound 91] | 1 to 10 | 1 to 10 |  | 5.8 % of Con. |
